Assays:
[1] = set-up: method as in 2 sources, one per row (each row's own in cited_ref): ref 14 = [14]; PMID 23386784; doi:10.2147/BTT.S24580; 14 Nooka A , Gleason C , Casbourne D , Lonial S . Relapsed and refractory lymphoid neoplasms and multiple myeloma with a focus on carfilzomib . Biologics 2013; 7 : 13 – 32 . 10.2147/BTT.S24580 233867 ||| ref 6 = [6]; PMID 21752943; doi:10.1124/dmd.111.039164; 6 Yang J , Wang Z , Fang Y , Jiang J , Zhao F , Wong H , et al Pharmacokinetics, pharmacodynamics, metabolism, distribution, and excretion of carfilzomib in rats . Drug Metab Dispos . 2011; 39 : 1873; conditions: cited from earlier work
[2] = molecular target: T1, proteasome catalytic subunit β5 (Homo sapiens, UniProt P20618+P28074); assay: Immunoblot mobility shift of covalently modified β5 in tumor lysates; set-up: species or system human (H460 xenograft in mice); conditions: positive control: tumor lysates incubated with 50 nM CFZ for 2 h in vitro
T1 construct: tumor tissue lysates (10 μg of total protein) were resolved using 12.5% SDS-PAGE; from tissue; host or cells: excised H460 xenograft tumour tissue from NOD/SCID mice
Procedure: Briefly, tumor tissue lysates (10 μg of total protein) were resolved using 12.5% SDS-PAGE and transferred onto a PVDF membrane (Bio-Rad Laboratories). Membranes were blocked in 5% milk in Tris-buffered saline containing 0.05% Tween-20 (TBST) and probed with the following antibodies; for β5 (dilution 1:1000, Abcam) and β-actin (dilution 1:1000, Cell Signaling). Membranes were washed with TBST and probed with the corresponding secondary antibodies conjugated with horseradish peroxidase. Bound antibodies were visualized using an enhanced chemiluminescence substrate (Thermo Fisher Scientific).

Carfilzomib [CFZ]
solubility in aqueous media ([1]; background statement, no reference given): practically insoluble
share of CFZ eliminated from systemic circulation within 30 min ([1]; following intravenous injection, peptide backbone cleavage and epoxide hydrolysis): > 95%
maximum tolerated dose ([1]; mice): 5 mg/kg
β5 band mobility compared with negative control (DMSO) [2]: showed a mobility shift

From publication PMC5342227, “Polymer micelle formulation for the proteasome inhibitor drug carfilzomib: Anticancer efficacy and pharmacokinetic studies in mice” (PLoS ONE, 2017)
